Test results published in ChEMBL document CHEMBL4610070, “Talauxins: Hybrid Phenalenone Dimers from Talaromyces stipitatus” (J Nat Prod, 2020).
Values after ≈ are worked out from the molar mass of the structure shown. Active and inactive are the calls of the source. No cut-off for these calls is given here.

Columns and labels:
Escherichia coli [1] = test: Antibacterial activity against Escherichia coli ATCC 25922 assessed as reduction in microbial growth up to 100 ug/ml after incubated for 48 hrs by resazurin dye based assay; assay type: functional, organism-based
Mus musculus = organism: Mus musculus; test: Antiproliferative activity against mouse NS1 cells assessed as reduction in cell viability up to 100 ug/ml after 48 hrs by resazurin dye based assay; assay type: functional
Bacillus subtilis [2] = test: Antibacterial activity against Bacillus subtilis ATCC 6633 assessed as reduction in microbial growth up to 100 ug/ml after incubated for 48 hrs by resazurin dye based assay; assay type: functional, organism-based
Saccharomyces cerevisiae [3] = test: Antifungal activity against Saccharomyces cerevisiae ATCC 9763 assessed as reduction in microbial growth up to 100 ug/ml after incubated for 48 hrs by bromocresol green dye based assay; assay type: functional, organism-based
Candida albicans [4] = test: Antifungal activity against Candida albicans ATCC 10231 assessed as reduction in microbial growth up to 100 ug/ml after incubated for 48 hrs by bromocresol green dye based assay; assay type: functional, organism-based
Escherichia coli [5] = test: Antibacterial activity against Escherichia coli ATCC 25922 assessed as reduction in microbial growth after incubated for 48 hrs by resazurin dye based assay; assay type: functional, organism-based
Bacillus subtilis [6] = test: Antibacterial activity against Bacillus subtilis ATCC 6633 assessed as reduction in microbial growth after incubated for 48 hrs by resazurin dye based assay; assay type: functional, organism-based; details: ATCC 6633, 48 h
Candida albicans [7] = test: Antifungal activity against Candida albicans ATCC 10231 assessed as reduction in microbial growth after incubated for 48 hrs by bromocresol green dye based assay; assay type: functional, organism-based
[8] = Antiproliferative activity against mouse NS1 cells assessed as reduction in cell viability after 48 hrs by resazurin dye based assay; assay type: functional; details: for MIC: 48 h; for IC50: NS1, 48 h
Saccharomyces cerevisiae [9] = test: Antifungal activity against Saccharomyces cerevisiae ATCC 9763 assessed as reduction in microbial growth after incubated for 48 hrs by bromocresol green dye based assay; assay type: functional, organism-based; details: ATCC 9763, 48 h

For `CC[C@H](C)[C@@H](C(=O)O)n1cc2c3c(c(C)cc(O)c3c1=O)[C@]1(OC)[C@H](C2=O)[C@]23COC(=O)c4c(O)cc(C)c(c42)C(=O)[C@H]1[C@@H]3OC(C)=O`, the Activity (Escherichia coli [1]) was “inactive”, the Activity (Mus musculus) was “inactive” and the Activity (Bacillus subtilis [2]) was “inactive”. For the same compound, the Activity (Saccharomyces cerevisiae [3]) was “inactive” and the Activity (Candida albicans [4]) was “inactive”.

For `CO[C@@]12c3c(C)cc(O)c4c(=O)n([C@H](CC(C)C)C(=O)O)cc(c34)C(=O)[C@@H]1[C@]13COC(=O)c4c(O)cc(C)c(c41)C(=O)[C@H]2[C@@H]3OC(C)=O`, the Activity (Escherichia coli [1]) was “inactive”, the Activity (Mus musculus) was “inactive” and the Activity (Bacillus subtilis [2]) was “inactive”. For the same compound, the Activity (Saccharomyces cerevisiae [3]) was “inactive” and the Activity (Candida albicans [4]) was “inactive”.

For `CO[C@@]12c3c(C)cc(O)c4c(=O)n([C@@H](CCC(N)=O)C(=O)O)cc(c34)C(=O)[C@@H]1[C@]13COC(=O)c4c(O)cc(C)c(c41)C(=O)[C@H]2[C@@H]3OC(C)=O`, the Activity (Escherichia coli [1]) was “inactive”, the Activity (Mus musculus) was “inactive” and the Activity (Bacillus subtilis [2]) was “inactive”. The Activity (Saccharomyces cerevisiae [3]) was “inactive” and the Activity (Candida albicans [4]) was “inactive”.

In the case of `CC(=O)CC1(O)C(=O)c2c(O)cc(C)c3c(O)cc(O)c(c23)C1=O` (stereo not drawn), the Activity (Escherichia coli [1]) is reported as “inactive”, the Activity (Mus musculus) is reported as “inactive” and the Activity (Bacillus subtilis [2]) is reported as “inactive”. The Activity (Saccharomyces cerevisiae [3]) was “inactive” and the Activity (Candida albicans [4]) was “inactive”.

With `CC[C@@H](C)[C@H](C(=O)O)n1cc2c3c(c(C)cc(O)c3c1=O)[C@]1(OC)[C@H](C2=O)[C@]23COC(=O)c4c(O)cc(C)c(c42)C(=O)[C@H]1[C@@H]3OC(C)=O` the Activity (Escherichia coli [1]) was “inactive”, the Activity (Mus musculus) was “inactive” and the Activity (Bacillus subtilis [2]) was “inactive”. For the same compound, the Activity (Saccharomyces cerevisiae [3]) was “inactive” and the Activity (Candida albicans [4]) was “inactive”.

In the case of `CC1(C)S[C@@H]2[C@H](NC(=O)[C@H](N)c3ccccc3)C(=O)N2[C@H]1C(=O)O` [AMPICILLIN], the IC50 (Escherichia coli [5]) is reported as “Not Active” and the IC50 (Bacillus subtilis [6]) is reported as 0.9 µM.

With `Cc1cc(O)c2c3c1C(=O)[C@@H]1C4=C(C(=O)c5cn([C@H](C(=O)O)C(C)C)c(=O)c6c(O)cc(C)c4c56)[C@@]3(COC2=O)[C@H]1O` the Activity (Escherichia coli [1]) was “inactive”, the Activity (Mus musculus) was “inactive” and the Activity (Bacillus subtilis [2]) was “inactive”. For the same compound, the Activity (Saccharomyces cerevisiae [3]) was “inactive” and the Activity (Candida albicans [4]) was “inactive”.

With `CO[C@@]12c3c(C)cc(O)c4c(=O)n([C@@H](CCC(=O)O)C(=O)O)cc(c34)C(=O)[C@@H]1[C@]13COC(=O)c4c(O)cc(C)c(c41)C(=O)[C@H]2[C@@H]3OC(C)=O` the Activity (Escherichia coli [1]) was “inactive”, the Activity (Mus musculus) was “inactive” and the Activity (Bacillus subtilis [2]) was “inactive”. The Activity (Saccharomyces cerevisiae [3]) was “inactive” and the Activity (Candida albicans [4]) was “inactive”.

In the case of `CO[C@@]12c3c(C)cc(O)c4c(=O)n([C@H](C(=O)O)C(C)C)cc(c34)C(=O)[C@@H]1[C@]13COC(=O)c4c(O)cc(C)c(c41)C(=O)[C@H]2[C@@H]3OC(C)=O`, the Activity (Escherichia coli [1]) is reported as “inactive”, the Activity (Mus musculus) is reported as “inactive” and the Activity (Bacillus subtilis [2]) is reported as “inactive”. For the same compound, the Activity (Saccharomyces cerevisiae [3]) was “inactive” and the Activity (Candida albicans [4]) was “inactive”.

With `Cc1cc(O)c2c3c(c(O)cc(O)c13)C(=O)C(O)=C2O` the IC50 (Candida albicans [7]) was “Not Active”, the MIC [8] was 25 µg/mL (≈ 91.2 µM) and the IC50 [8] was 70 µM. For the same compound, the IC50 (Escherichia coli [5]) was “Not Active”, the IC50 (Saccharomyces cerevisiae [9]) was greater than 400 µM and the IC50 (Bacillus subtilis [6]) was 265 µM. The MIC (Bacillus subtilis [6]) was 100 µg/mL.

In the case of `CO[C@@]12c3c(C)cc(O)c4c(=O)n([C@@H](CC(C)C)C(=O)O)cc(c34)C(=O)[C@@H]1[C@]13COC(=O)c4c(O)cc(C)c(c41)C(=O)[C@H]2[C@@H]3OC(C)=O`, the Activity (Escherichia coli [1]) is reported as “inactive”, the Activity (Mus musculus) is reported as “inactive” and the Activity (Bacillus subtilis [2]) is reported as “inactive”. For the same compound, the Activity (Saccharomyces cerevisiae [3]) was “inactive” and the Activity (Candida albicans [4]) was “inactive”.

In the case of `CO[C@@]12c3c(C)cc(O)c4c(=O)occ(c34)C(=O)[C@@H]1[C@]13COC(=O)c4c(O)cc(C)c(c41)C(=O)[C@H]2[C@@H]3OC(C)=O`, the IC50 (Candida albicans [7]) is reported as “Not Active”, the MIC [8] is reported as 100 µg/mL (≈ 183 µM) and the IC50 [8] is reported as 140 µM. The IC50 (Escherichia coli [5]) was “Not Active”, the IC50 (Saccharomyces cerevisiae [9]) was greater than 200 µM and the IC50 (Bacillus subtilis [6]) was greater than 200 µM.

In the case of `Clc1ccccc1C(c1ccccc1)(c1ccccc1)n1ccnc1` [CLOTRIMAZOLE], the IC50 (Candida albicans [7]) is reported as “Not Active” and the IC50 (Saccharomyces cerevisiae [9]) is reported as 0.4 µM.

For `O=c1[nH]cc(F)c(=O)[nH]1` [FLUOROURACIL], the IC50 [8] was 4.6 µM.
